Assay results taken from ChEMBL document CHEMBL4387711, “Discovery of niclosamide and its O-alkylamino-tethered derivatives as potent antibacterial agents against carbapenemase-producing and/or colistin resistant Enterobacteriaceae isolates” (2019).
Activity calls are given as the source filed them.

Experiments:
Format in all cases: functional, organism-based
Klebsiella pneumoniae [1] = test: Antibacterial activity against Klebsiella pneumoniae CECT-997 assessed as inhibition of growth at 50 uM after 18 hrs
Klebsiella pneumoniae [2] = test: Antibacterial activity against colistin-susceptible VIM1/carbapenemase-producing Klebsiella pneumoniae 07 assessed as inhibition of growth at 50 uM after 18 hrs
Klebsiella pneumoniae [3] = test: Antibacterial activity against colistin-resistant VIM1/DHAI/carbapenemase-producing Klebsiella pneumoniae 21 assessed as inhibition of growth at 50 uM after 18 hrs
Klebsiella pneumoniae [4] = test: Antibacterial activity against colistin-susceptible OXA-48/CTX-M-15/carbapenemase-producing Klebsiella pneumoniae 28 assessed as inhibition of growth at 50 uM after 18 hrs
Klebsiella pneumoniae [5] = test: Antibacterial activity against colistin-resistant OXA-48/CTX-M-15/carbapenemase-producing Klebsiella pneumoniae 29 assessed as inhibition of growth at 50 uM after 18 hrs
Klebsiella pneumoniae [6] = test: Antibacterial activity against colistin-susceptible NDM-1/carbapenemase-producing Klebsiella pneumoniae assessed as inhibition of growth at 50 uM after 18 hrs
Escherichia coli = test: Antibacterial activity against colistin-susceptible NDM1/KPC-producing Escherichia coli assessed as inhibition of growth at 50 uM after 18 hrs
Klebsiella aerogenes [7] = test: Antibacterial activity against colistin-resistant Enterobacter aerogenes 3 assessed as inhibition of growth at 50 uM after 18 hrs
Enterobacter cloacae [8] = test: Antibacterial activity against colistin-resistant Enterobacter cloacae 32 assessed as inhibition of growth at 50 uM after 18 hrs
Klebsiella aerogenes [9] = test: Antibacterial activity against colistin-resistant Enterobacter aerogenes 53 assessed as inhibition of growth at 50 uM after 18 hrs
Enterobacter cloacae [10] = test: Antibacterial activity against colistin-resistant Enterobacter cloacae 142 assessed as inhibition of growth at 50 uM after 18 hrs
Enterobacter cloacae [11] = test: Antibacterial activity against colistin-resistant Enterobacter cloacae 190 assessed as inhibition of growth at 50 uM after 18 hrs
Enterobacter cloacae [12] = test: Antibacterial activity against colistin-resistant Enterobacter cloacae 263 assessed as inhibition of growth at 50 uM after 18 hrs
Enterobacter cloacae [13] = test: Antibacterial activity against colistin-resistant Enterobacter cloacae 272 assessed as inhibition of growth at 50 uM after 18 hrs
Enterobacter cloacae [14] = test: Antibacterial activity against colistin-resistant Enterobacter cloacae 280 assessed as inhibition of growth at 50 uM after 18 hrs
Enterobacter cloacae [15] = test: Antibacterial activity against colistin-resistant Enterobacter cloacae 297 assessed as inhibition of growth at 50 uM after 18 hrs

Measured: growth inhibition (GI)

CN1CCN(CCOc2ccc(Cl)cc2C(=O)Nc2ccc([N+](=O)[O-])cc2Cl)CC1
inactive: Klebsiella pneumoniae [1] | Klebsiella pneumoniae [2] | Klebsiella pneumoniae [3] | Klebsiella pneumoniae [4] | Klebsiella pneumoniae [5] | Klebsiella pneumoniae [6] | Escherichia coli | Klebsiella aerogenes [7] | Enterobacter cloacae [8] | Klebsiella aerogenes [9] | Enterobacter cloacae [10] | Enterobacter cloacae [11] | Enterobacter cloacae [12] | Enterobacter cloacae [13] | Enterobacter cloacae [14] | Enterobacter cloacae [15]

O=C(Nc1ccc([N+](=O)[O-])cc1Cl)c1cc(Cl)ccc1OC1CCNCC1
inactive: Klebsiella pneumoniae [1] | Klebsiella pneumoniae [2] | Klebsiella pneumoniae [3] | Klebsiella pneumoniae [4] | Klebsiella pneumoniae [5] | Klebsiella pneumoniae [6] | Escherichia coli | Klebsiella aerogenes [7] | Enterobacter cloacae [8] | Klebsiella aerogenes [9] | Enterobacter cloacae [10] | Enterobacter cloacae [11] | Enterobacter cloacae [12] | Enterobacter cloacae [13] | Enterobacter cloacae [14] | Enterobacter cloacae [15]

NCCOc1ccc(Cl)cc1C(=O)Nc1ccc([N+](=O)[O-])cc1Cl
inactive: Klebsiella pneumoniae [1] | Klebsiella pneumoniae [2] | Klebsiella pneumoniae [3] | Klebsiella pneumoniae [4] | Klebsiella pneumoniae [5] | Klebsiella pneumoniae [6] | Escherichia coli | Klebsiella aerogenes [7] | Enterobacter cloacae [8] | Klebsiella aerogenes [9] | Enterobacter cloacae [10] | Enterobacter cloacae [11] | Enterobacter cloacae [12] | Enterobacter cloacae [13] | Enterobacter cloacae [14] | Enterobacter cloacae [15]

O=C(Nc1ccc([N+](=O)[O-])cc1Cl)c1cc(Cl)ccc1OCCN1CCOCC1
inactive: Klebsiella pneumoniae [1] | Klebsiella pneumoniae [2] | Klebsiella pneumoniae [3] | Klebsiella pneumoniae [4] | Klebsiella pneumoniae [5] | Klebsiella pneumoniae [6] | Escherichia coli | Klebsiella aerogenes [7] | Enterobacter cloacae [8] | Klebsiella aerogenes [9] | Enterobacter cloacae [10] | Enterobacter cloacae [11] | Enterobacter cloacae [12] | Enterobacter cloacae [13] | Enterobacter cloacae [14] | Enterobacter cloacae [15]

NCCCOc1ccc(Cl)cc1C(=O)Nc1ccc([N+](=O)[O-])cc1Cl
inactive: Klebsiella pneumoniae [1] | Klebsiella pneumoniae [2] | Klebsiella pneumoniae [3] | Klebsiella pneumoniae [4] | Klebsiella pneumoniae [5] | Klebsiella pneumoniae [6] | Escherichia coli | Klebsiella aerogenes [7] | Enterobacter cloacae [8] | Klebsiella aerogenes [9] | Enterobacter cloacae [10] | Enterobacter cloacae [11] | Enterobacter cloacae [12] | Enterobacter cloacae [13] | Enterobacter cloacae [14] | Enterobacter cloacae [15]

O=C(Nc1ccc([N+](=O)[O-])cc1Cl)c1cc(Cl)ccc1OCCN1CCNCC1
inactive: Klebsiella pneumoniae [1] | Klebsiella pneumoniae [2] | Klebsiella pneumoniae [3] | Klebsiella pneumoniae [4] | Klebsiella pneumoniae [5] | Klebsiella pneumoniae [6] | Escherichia coli | Klebsiella aerogenes [7] | Enterobacter cloacae [8] | Klebsiella aerogenes [9] | Enterobacter cloacae [10] | Enterobacter cloacae [11] | Enterobacter cloacae [12] | Enterobacter cloacae [13] | Enterobacter cloacae [14] | Enterobacter cloacae [15]

CN(C)CCOc1ccc(Cl)cc1C(=O)Nc1ccc([N+](=O)[O-])cc1Cl
inactive: Klebsiella pneumoniae [1] | Klebsiella pneumoniae [2] | Klebsiella pneumoniae [3] | Klebsiella pneumoniae [4] | Klebsiella pneumoniae [5] | Klebsiella pneumoniae [6] | Escherichia coli | Klebsiella aerogenes [7] | Enterobacter cloacae [8] | Klebsiella aerogenes [9] | Enterobacter cloacae [10] | Enterobacter cloacae [11] | Enterobacter cloacae [12] | Enterobacter cloacae [13] | Enterobacter cloacae [14] | Enterobacter cloacae [15]

CN1CCC(Oc2ccc(Cl)cc2C(=O)Nc2ccc([N+](=O)[O-])cc2Cl)CC1
inactive: Klebsiella pneumoniae [1] | Klebsiella pneumoniae [2] | Klebsiella pneumoniae [3] | Klebsiella pneumoniae [4] | Klebsiella pneumoniae [5] | Klebsiella pneumoniae [6] | Escherichia coli | Klebsiella aerogenes [7] | Enterobacter cloacae [8] | Klebsiella aerogenes [9] | Enterobacter cloacae [10] | Enterobacter cloacae [11] | Enterobacter cloacae [12] | Enterobacter cloacae [13] | Enterobacter cloacae [14] | Enterobacter cloacae [15]

O=C(Nc1ccc([N+](=O)[O-])cc1Cl)c1cc(Cl)ccc1OCCN1CCCCC1
inactive: Klebsiella pneumoniae [1] | Klebsiella pneumoniae [2] | Klebsiella pneumoniae [3] | Klebsiella pneumoniae [4] | Klebsiella pneumoniae [5] | Klebsiella pneumoniae [6] | Escherichia coli | Klebsiella aerogenes [7] | Enterobacter cloacae [8] | Klebsiella aerogenes [9] | Enterobacter cloacae [10] | Enterobacter cloacae [11] | Enterobacter cloacae [12] | Enterobacter cloacae [13] | Enterobacter cloacae [14] | Enterobacter cloacae [15]
